Assay: Blocker Index (BI), expert grader ranking of malodor strength of isovaleric acid swatch treated with test material
Procedure: Making Swatches Treated with the Test Material A clean swatch is treated with 13 μL of a known concentration of a test sample material resulting in an about 1 cm of the solution on the clean swatch. Just like the reference swatches, the test sample material swatch is dried in a vented hood for 30 minutes and then wrapped in aluminum foil to prevent contamination. The test material swatches and the FFI reference swatches should be made within 2 hrs of each other. The test material swatch must be used within 0.5 to 12 hours and discarded after 12 hours. Assigning the FFI to the Test Material At least two perfumers/expert graders are used to assign an FFI grade to a test sample. The perfumer/expert grader smells the test sample swatch by holding that swatch 1 inch from their nose with their nose centered over the area where the test sample was pipetted on to the fabric and then assigns the test sample an FFI grade using the FFI reference scale anchor swatches as references. In cases where the test sample material is graded greater than 3, the test material is not a blocker material or the concentration of the material needs to be lowered and reevaluated to determine if a lower level has a malodor blocker functionality. Method for Assigning the BI to Test Sample The first step in the method for assigning a BI to a test sample material on the BI reference scale is to create the BI reference swatches. […] Fabric swatches for this test are white knit polycotton (4 inch×4 inch) swatches from EMC ordered as PC 50/50. The supplier is instructed to strip the swatches first, stripping involves washing twice with a fragrance-free detergent and rinsing three times. […] The BI scale contains one clean swatch with no malodor applied. […] These solutions are pipetted to the middle of the swatches. […] After drying for 30 minutes in a vented hood, the swatches are wrapped in aluminum foil to prevent odor contamination to the treated swatch. A clean untreated swatch is also included as the lowest anchor point of reference for malodor strength on the BI scale. The BI reference scale swatches should be used within 0.5 to 12 hours and discarded after 12 hours. The swatches are used as scale anchor points when graders evaluate a test sample(s) and are assigned a Blocker Index (BI) as show in Table 12. […] The perfumer/expert grader is asked to rank order swatches according to a scale between 0 and 3.
The reference swatches represent the 0, 1, 2, and 3 BIs on the BI reference scale, Table 12. The expert grader should familiarizes him/herself with the strength of the odor on the BI reference swatches by sniffing each one starting at 0 (the lowest odor strength) and ending at 3 (the highest odor strength). This should be done prior to evaluating the swatch treated with the test material.
Making the Malodorous Swatch and Treating it with a Test Material To evaluate the BI, the test material is applied to a malodorous swatch to determine how well the test material blocks the malodor. […] After drying the malodorous swatch a known concentration of test material solution, between 1 ppm and 100 ppm is pipetted onto the malodorous swatch. […] It is sometimes necessary to evaluate several levels of the test material between about 1 and about 100 ppm to determine the BI. Assigning the BI to the Test Material At least two perfumers/expert graders are used to assign the BI to the test sample. […] The test sample swatch is assigned a BI at or between numbers on the BI in table.

[1] = test material at 10 ppm on isovaleric acid swatch
[2] = test material at 50 ppm on isovaleric acid swatch
[3] = test material Conc 10 ppm on swatch with 20 μL 0.08% isovaleric acid, scale 0 to 3
[4] = test material Conc 50 ppm on swatch with 20 μL 0.08% isovaleric acid, scale 0 to 3

CC1(C)CCc2ccc(CCC=O)cc21
BI [1]: 1.5 | BI [2]: 2.7

CC1CCC2(C(C)C)CC(C)OC2C1 (stereo not shown)
BI [1]: 2.0 | BI [2]: 2.2

CCC(=O)OC1CC2C3C=CCC3C1C2(C)C (stereo not shown)
BI [1]: 1.5 | BI [2]: 2.2

O=C1CCC2CCCCC2O1 (stereo not shown) [3,4,4a,5,6,7,8,8a-octahydrochromen-2-one]
BI [3]: 2.0 | BI [4]: 2.0

CC(C)(C)C1CCCCC1 [4-tert-butyl cyclohexane]
BI [3]: 2.0 | BI [4]: 2.0

CCCCCCCCCCCCCCCC(=O)OC [Material 109]
BI [3]: 2.0

CCCCCCCCCCCCO [Material 174]
BI [4]: 2.3

CC(=O)OCCCCCCC(C)C [Material 204]
BI [3]: 2.0 | BI [4]: 2.7

CC1(C)CCc2ccc(CCC=O)cc21 [Material 261]
BI [3]: 1.8 | BI [4]: 1.3

CC(=O)OC1CC2CC1C1CC=CC21 (stereo not shown) [Material 281]
BI [3]: 2.0 | BI [4]: 2.0

CCCCCCCCCCCC(=O)OCC [Material 391]
BI [4]: 2.2

C=CC(C)=CCC=C(C)C [Material 524]
BI [4]: 2.8

CCC(O)COC1CCCCC1C(C)(C)C (stereo not shown) [Material 677]
BI [3]: 2.3 | BI [4]: 2.0

CC(CCO)CCc1ccccc1 (stereo not shown) [Material 962]
BI [3]: 2.3 | BI [4]: 1.7

CCOC(=O)OC1C(C)CCC(C)C1C (stereo not shown) [Material 1005]
BI [4]: 2.6

COC(=O)OC1CC/C=C\CCC1 (stereo not shown) [Material 1139]
BI [3]: 2.0 | BI [4]: 2.7

C=C1CCC2OC2(C)CCC2C1CC2(C)C (stereo not shown) [Material 1148]
BI [4]: 2.3

CC1(C)C2CCC3(C2)C1C(=O)CCC3(C)C (stereo not shown) [Material 1149]
BI [3]: 1.5 | BI [4]: 2.3

CCCCCCCCCCCO [Undecanol]
BI [4]: 2.3

Reference: patent US11334695B2, “Antiperspirant and deodorant compositions comprising malodor reduction compositions” (The Procter & Gamble Company, priority 2014, dated 2022)
